Values of other authors as cited in patent US20190263765A1, “SYNERGISTIC ANTICOAGULANT COMPOSITION” (priority 2018, published 2019).

Conditions: background statement

Row | Compound | clearance from the body (in words) | clearance from the body [h]
1 | O=c1oc2ccccc2c(O)c1C1CC(c2ccc(-c3ccc(Br)cc3)cc2)Cc2ccccc21 (centres unmarked) [brodifacoum] | requires months | –
2 | CC(=O)CC(c1ccccc1)c1c(O)c2ccccc2oc1=O (centres unmarked) [warfarin] | – | 72 to 96
